ChEMBL document CHEMBL4616684, “Potential Cancer Treatment by Agonists of the Stimulator of Interferon Genes” (ACS Med Chem Lett, 2020)

Key:
[1] = target: Stimulator of interferon genes protein (Homo sapiens) (UniProt Q86WV6); test: Agonist activity at STING in human THP1 cells assessed as assessed as increase in IFNbeta secretion at 30 uM measured after 5 hrs by AlphaLISA assay relative to 2'3'-cGAMP; assay type: cell-based; settings: THP-1
[2] = target: Stimulator of interferon genes protein (Homo sapiens, UniProt Q86WV6, G230A/R293Q/R71H); test: Activation of full length human STNG R71H/G230A/R293Q mutant expressed in Trichoplusia ni cell membrane incubated for 60 mins followed by addition of [3H]cGAMP by competitive binding assay; assay type: cell membranes
Chain of Stimulator of interferon genes protein (Q86WV6 whole entry R71H/G230A/R293Q): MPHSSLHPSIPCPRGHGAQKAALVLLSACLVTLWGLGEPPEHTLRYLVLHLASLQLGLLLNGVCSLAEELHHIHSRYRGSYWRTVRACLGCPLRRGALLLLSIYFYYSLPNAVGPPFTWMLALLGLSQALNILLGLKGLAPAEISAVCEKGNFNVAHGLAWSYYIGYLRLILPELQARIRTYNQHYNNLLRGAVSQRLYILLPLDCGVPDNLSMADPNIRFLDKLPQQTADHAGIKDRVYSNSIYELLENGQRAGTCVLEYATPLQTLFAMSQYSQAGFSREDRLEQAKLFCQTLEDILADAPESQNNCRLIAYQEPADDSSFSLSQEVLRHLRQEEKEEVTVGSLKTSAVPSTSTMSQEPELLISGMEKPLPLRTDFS

Chain of Stimulator of interferon genes protein (Homo sapiens) (Q86WV6 whole entry): as the sequence (Q86WV6 whole entry R71H/G230A/R293Q) above, with H71R, A230G, Q293R counted along it

Row | SMILES | Activity [1] [%] | EC50 [2] [µM]
1 | COc1cc2sc(C(=O)C3CC3C(=O)O)cc2nc1OC (configuration not stated) | 100 | 1.15
2 | COc1cc2cc(C(=O)CCC(=O)O)sc2nc1OC | 146 | 5.51
3 | COc1cc2nc(C(=O)CCC(=O)O)sc2cc1OC | 56 | 13.3

The remaining lines, values ahead:

Row | Activity [1] [%] | EC50 [2] [µM] | SMILES
4 | 85 | 1.75 | CCC(CC(=O)c1cc2nc(OC)c(OC)cc2s1)C(=O)O (configuration not stated)
5 | 11 | 10.6 | COc1cc2sc(C(=O)C[C@H](C)C(=O)O)nc2cc1Br
6 | 14 | 10.1 | COc1cc2sc(C(=O)C[C@H](C)C(=O)O)nc2nc1OC
